Experimental data published in US20130302497A1, “Taste Enhancement” (Givaudan S.A., priority 2010, published 2013).

Test: Expert panel taste evaluation (umami/salty) in chicken broth with or without added choline chloride
Format: in vivo
Conditions: for Taste description, material alone: without choline chloride; for Taste description, with choline added: choline chloride 7 ppm final concentration
Procedure: The materials described below were evaluated at the concentration specified by an expert panel in a chicken broth (commercial Swanson chicken broth, with no MSG added, 50% reduced sodium 430 mg/serving) with or without added choline chloride (7 ppm final concentration).

[1] = 10 ppm in Swanson chicken broth, no MSG added, 50% reduced sodium

Structure (SMILES) | Taste description, material alone [1] | Taste description, with choline added (10 ppm in chicken broth) | Taste description, with choline added (1 ppm in chicken broth) | Taste description, material alone (1 ppm in chicken broth) | further results
Cc1cc(O)c(C(=O)CCc2ccccn2)cc1C [1-(2-hydroxy-4,5-dimethylphenyl)-3-(pyridin-2-yl)propan-1-one] | Weak umami | Better, stronger umami, saltier | – | – | –
CCCCCOc1ccc(C(=O)CCc2ccccn2)c(O)c1 [1-(2-hydroxy-4-(pentyloxy)phenyl)-3-(pyridine-2-yl)propan-1-one] | – | – | enhanced the saltiness and umami character with a well rounded taste profile | salty and umami | –
CC(C)COc1ccc(C(=O)CCc2ccccn2)c(O)c1 [1-(2-hydroxy-4-isobutoxyphenyl)-3-(pyridine-2-yl)propan-1-one] | – | – | enhanced the saltiness and umami character with a well rounded taste profile | Salty and umami | –
COc1ccc(C(=O)CCc2ccccn2)c(O)c1 [1-(2-hydroxy-4-methoxyphenyl)-3-(pyridin-2-yl)propan-1-one] | Umami, lingering, body | enhancement of umami, enhancement of saltiness | – | – | –
CC(C)=CCC/C(C)=C/CNC(=O)C1CC1 [(E)-N-(3,7-dimethylocta-2,6-dienyl)cyclopropanecarboxamide] | – | – | – | – | Taste description, with choline added (2 ppm in chicken broth): Very full, more salty, umami; Taste description, material alone (2 ppm in chicken broth): Umami, salty, not good aftertaste
COc1cc(C)ccc1CNC(=O)C(=O)NCCc1ccccn1 [N-(2-methoxy-4-methylbenzyl)-N′-(2-(pyridin-2-yl)ethyl)oxalamide] | – | – | – | – | Taste description, with choline added (0.5 ppm in chicken broth): more lingering umami, kokumi; Taste description, material alone (0.5 ppm in chicken broth): lingering umami
